Measured values as given in BindingDB's records for doi:10.1073/pnas.2111172118 (Baylor College of Medicine, 2021).

Biological target: Replicase polyprotein 1ab (Severe acute respiratory syndrome coronavirus 2, UniProt P0DTD1)
Experiment: Enzyme Inhibition Assay and Ki Values Determination
Source text: Initial hydrolysis rates of fluorescent peptide were plotted as a function of compound concentrations and Ki values were obtained by fitting the data into the Morrison equation (42) with SE from triplicates.

With `COc1cc(-c2cccc3[nH]ncc23)cc(CO)c1OCC(=O)N1CCC(Oc2cccc(C(=O)N(C)C)c2)C1` (stereo unspecified) [CDD-1714] the Ki was 24 nM.
